We go through one compound from PMC9021598, “Structural Basis of Human Dimeric α-Amino-β-Carboxymuconate-ε-Semialdehyde Decarboxylase Inhibition With TES-1025” (Frontiers in Molecular Biosciences, 2022).

As a reminder, the Ki is a measure of affinity in units of concentration, obtained from inhibition or displacement. Read a low Ki as higher affinity.

The test has as its target T1, human α-amino-β-carboxymuconate-ε-semialdehyde decarboxylase (ACMSD) (Homo sapiens, UniProt Q8TDX5).
T1 construct: recombinant hACMSD expressed in Pichia pastoris; homodimer
Kind of test: X-ray co-crystal structure at […] Å; Ki from coupled spectrophotometric assay (Dixon tight-binding competitive inhibition). It counts as biochemical.

T1 sequence (Q8TDX5 whole entry): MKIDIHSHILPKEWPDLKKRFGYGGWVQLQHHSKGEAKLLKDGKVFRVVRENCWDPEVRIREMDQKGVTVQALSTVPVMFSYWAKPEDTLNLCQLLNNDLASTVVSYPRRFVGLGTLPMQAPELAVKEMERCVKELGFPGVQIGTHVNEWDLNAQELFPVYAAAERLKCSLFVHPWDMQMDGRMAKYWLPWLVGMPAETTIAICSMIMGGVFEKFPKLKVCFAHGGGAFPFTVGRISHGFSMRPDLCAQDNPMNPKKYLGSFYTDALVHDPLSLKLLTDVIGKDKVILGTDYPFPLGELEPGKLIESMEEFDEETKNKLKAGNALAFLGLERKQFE

In turn, `N#Cc1c(-c2cccs2)nc(SCc2cccc(CC(=O)O)c2)[nH]c1=O` [compound 4, 2-[3-[(5-cyano-6-oxo-4-thiophen-2-yl-1H-pyrimidin-2-yl)sulfanylmethyl]phenyl]acetic acid] showed a Ki of 0.85 ± 0.22 nM.
